Results: patent publication US20040043959A1, “Combination therapies for treating methylthioadenosine phosphorylase deficient cells” (priority 2002, published 2004)

Target: T1, Human MTAP (Homo sapiens, UniProt Q13126)
T1 construct: six-histidine tag (His6) (N); made in house; host or cells: E. coli BL21 DE3
T1 sequence (Q13126 1-283): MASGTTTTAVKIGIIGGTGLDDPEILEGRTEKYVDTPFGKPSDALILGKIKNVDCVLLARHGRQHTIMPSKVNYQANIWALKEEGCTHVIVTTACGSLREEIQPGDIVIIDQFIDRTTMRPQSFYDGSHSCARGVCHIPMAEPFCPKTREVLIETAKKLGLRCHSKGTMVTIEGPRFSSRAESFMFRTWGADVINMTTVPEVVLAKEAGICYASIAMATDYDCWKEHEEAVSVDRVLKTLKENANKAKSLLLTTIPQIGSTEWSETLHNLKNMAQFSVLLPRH
Experiment: MTAP substrate assay, coupled spectrophotometric (adenine, xanthine oxidase)
Assay type: biochemical
Details: 2 nM MTAP; for activity at 50 µM: 10 min, compound 50 uM, relative to MTA at 50 uM, read-out: MT-A—50: initial velocity as a percentage of the initial velocity with MTA as substrate; for MT-A—10: initial velocity as a percentage of the initial velocity with MTA as substrate: compound 10 uM, relative to MTA at 10 uM
Outline: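 Detection was xanthine oxidase-coupled (0.8 units/ml), reading adenine-derived absorbance at 305 nm over 10 min in potassium phosphate/DTT buffer at 37° C, with N-His6 enzyme purified from E. coli.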

SMILES	activity at 50 µM	MT-A—10: initial velocity as a percentage of the initial velocity with MTA as substrate
CCC(C)CSC[C@H]1O[C@@H](n2cnc3c(N)ncnc32)[C@H](O)[C@@H]1O (stereo partly drawn) [2(G)(71), (2R, 3R, 4S, 5S)-2-(6-amino-9H-purin-9-yl)-5-{[(2-methylbutyl)-thio]methyl}tetrahydro-furan-3,4-diol]	73%	77%
Nc1cccc(SC[C@H]2O[C@@H](n3cnc4c(N)ncnc43)[C@H](O)[C@@H]2O)c1 [2(G)(72), (2R, 3R, 4S, 5S)-2-(6-amino-9H-purin-9-yl)-5-{[(3-aminophenyl)thio]-methyl}tetrahydrofuran-3,4-diol]	38%	33%
Nc1ncnc2c1ncn2[C@@H]1O[C@H](CSCc2ccccc2Cl)[C@@H](O)[C@H]1O [2(G)(73), (2R, 3R, 4S, 5S)-2-(6-amino-9H-purin-9-yl)-5-{[(2-chlorobenzyl)thio]-methyl}tetrahydrofuran-3,4-diol]	21%	30%
Nc1ncnc2c1ncn2[C@@H]1O[C@H](CSCc2cccc(C(F)(F)F)c2)[C@@H](O)[C@H]1O [2(G)(74)]	22%	23%
Nc1ncnc2c1ncn2[C@@H]1O[C@H](CSCCCO)[C@@H](O)[C@H]1O [2(G)(75)]	39%	32%
Nc1ncnc2c1ncn2[C@@H]1O[C@H](CSCc2ccc(Cl)cc2Cl)[C@@H](O)[C@H]1O [2(G)(76), (2R, 3R, 4S, 5S)-2-(6-amino-9H-purin-9-yl)-5-{[(2,4-dichlorobenzyl)-thio]methyl}tetrahydro-furan-3,4-diol]	11%	14%
CCCC(CCO)SC[C@H]1O[C@@H](n2cnc3c(N)ncnc32)[C@H](O)[C@@H]1O (some centres unmarked) [2(G)(77)]	6%	3%
Nc1ncnc2c1ncn2[C@@H]1O[C@H](CSCCCCCCO)[C@@H](O)[C@H]1O [2(G)(78)]	6%	3%
Cc1csc(SC[C@H]2O[C@@H](n3cnc4c(N)ncnc43)[C@H](O)[C@@H]2O)n1 [2(G)(79), (2R, 3R, 4S, 5S)-2-(6-amino-9H-purin-9-yl)-5-{[(4-methyl-1,3-thiozol-2-yl)thio]methyl}tetrahydrofuran-3,4-diol]	45%	38%
CCc1ccc(SC[C@H]2O[C@@H](n3cnc4c(N)ncnc43)[C@H](O)[C@@H]2O)cc1 [2(G)(80)]	15%	13%
Nc1ncnc2c1ncn2[C@@H]1O[C@H](CSCCc2c[nH]c3ccccc23)[C@@H](O)[C@H]1O [2(G)(81), (2R, 3R, 4S, 5S)-2-(6-amino-9H-purin-9-yl)-5-({[2-(1H-indol-3-yl)ethyl]thio}methyl)-tetrahydrofuran-3,4-diol]	18%	18%

Continued, values first:

activity at 50 µM	MT-A—10: initial velocity as a percentage of the initial velocity with MTA as substrate	SMILES
1%	1%	Nc1ncnc2c1ncn2[C@@H]1O[C@H](CSc2ccccc2C(F)(F)F)[C@@H](O)[C@H]1O [2(G)(82), (2R, 3R, 4S, 5S)-2-(6-amino-9H-purin-9-yl)-5-({[2-(trifluoromethyl)-phenyl]thio}methyl)tetra-hydrofuran-3,4-diol]
8%	5%	COc1ccc(CSC[C@H]2O[C@@H](n3cnc4c(N)ncnc43)[C@H](O)[C@@H]2O)c(OC)c1 [2(G)(83), (2R, 3R, 4S, 5S)-2-(6-amino-9H-purin-9-yl)-5-{[(2,4-dimethoxybenzyl)-thio]methyl}tetrahydro-furan-3,4-diol]
5%	4%	Cc1cc(N)c(SC[C@H]2O[C@@H](n3cnc4c(N)ncnc43)[C@H](O)[C@@H]2O)cc1C [2(G)(84)]
2%	10%	Nc1ncnc2c1ncn2[C@@H]1O[C@H](CSc2nc3cccnc3s2)[C@@H](O)[C@H]1O [2(G)(85), (2R, 3R, 4S, 5S)-2-(6-amino-9H-purin-9-yl)-5-[([1,3]thiozolo[5,4-b]pyridin-2-ylthio)-methyl]tetrahydrofuran-3,4-diol]
33%	31%	COc1ccc2sc(SC[C@H]3O[C@@H](n4cnc5c(N)ncnc54)[C@H](O)[C@@H]3O)nc2c1 [2(G)(86), (2R, 3R, 4S, 5S)-2-(6-amino-9H-purin-9-yl)-5-{[(5-methoxy-1,3-benzothiozol-2-yl)thio]-methyl}tetrahydro-furan-3,4-diol]
33%	36%	Nc1ncnc2c1ncn2[C@@H]1O[C@H](CSc2cccs2)[C@@H](O)[C@H]1O [2(G)(87), (2R, 3R, 4S, 5S)-2-(6-amino-9H-purin-9-yl)-5-[(2-thienylthio)methyl]-tetrahydrofuran-3,4-diol]
33%	25%	CCOC(=O)CSC[C@H]1O[C@@H](n2cnc3c(N)ncnc32)[C@H](O)[C@@H]1O [2(G)(88), ethyl ({[(2S, 3S, 4R, 5R)-5-(6-amino-9H-purin-9-yl)-3,4-dihydroxytetrahydro-furan-2-yl]methyl}thio)acetate]
5%	3%	N#Cc1cccnc1SC[C@H]1O[C@@H](n2cnc3c(N)ncnc32)[C@H](O)[C@@H]1O [2(G)(89), 2-({[(2S, 3S, 4R, 5R)-5-(6-amino-9H-purin-9-yl)-3,4-dihydroxytetrahydro-furan-2-yl]methyl}thio)nicotinonitrile]
8%	3%	Nc1ncnc2c1ncn2[C@@H]1O[C@H](CSc2cccc(C(=O)O)c2)[C@@H](O)[C@H]1O [2(G)(90), 3-({[(2S, 3S, 4R, 5R)-5-(6-amino-9H-purin-9-yl)-3,4-dihydroxytetrahydro-furan-2-yl]methyl}thio)benzoic acid]
5%	5%	Nc1ncnc2c1ncn2[C@@H]1O[C@H](CSc2ccccc2[N+](=O)[O-])[C@@H](O)[C@H]1O [2(G)(91), (2R, 3R, 4S, 5S)-2-(6-amino-9H-purin-9-yl)-5-{[(2-nitrophenyl)thio]-methyl}tetrahydrofuran-3,4-diol]
36%	27%	COC(=O)CCSC[C@H]1O[C@@H](n2cnc3c(N)ncnc32)[C@H](O)[C@@H]1O [2(G)(92), methyl 3-({[(2S, 3S, 4R, 5R)-5-(6-amino-9H-purin-9-yl)-dihydroxytetra-hydrofuran-2-yl]-methyl}thio)propanoate]
17%	18%	Nc1ncnc2c1ncn2[C@@H]1O[C@H](CSCc2csc3ccccc23)[C@@H](O)[C@H]1O [2(G)(93), (2R, 3R, 4S, 5S)-2-(6-amino-9H-purin-9-yl)-5-{[(1-benzothien-3-ylmethyl)thio]methyl}tetrahydrofuran-3,4-diol]
5%	5%	Nc1ncnc2c1ncn2[C@@H]1O[C@H](CSc2nccnc2CCc2ccccc2)[C@@H](O)[C@H]1O [2(G)(94), (2R, 3R, 4S, 5S)-2-(6-amino-9H-purin-9-yl)-5-({[3-(2-phenylethyl)-pyrazin-2-yl]thio}methyl)tetrahydrofuran-3,4-diol]
7%	7%	Nc1ncnc2c1ncn2[C@@H]1O[C@H](CSc2ccc(C(=O)O)cc2)[C@@H](O)[C@H]1O [2(G)(95), 4-({[(2S, 3S, 4R, 5R)-5-(6-amino-9H-purin-9-yl)-3,4-dihydroxytetrahydro-furan-2-yl]methyl}thio)-benzoic acid]
6%	5%	Nc1ncnc2c1ncn2[C@@H]1O[C@H](CSc2ccccc2Cl)[C@@H](O)[C@H]1O [2(G)(96), (2R, 3R, 4S, 5S)-2-(6-amino-9H-purin-9-yl)-5-{((2-chlorophenyl)thio]-methyl}tetrahydrofuran-3,4-diol]
6%	5%	Nc1ncnc2c1ncn2[C@@H]1O[C@H](CSc2cc(Cl)ccc2Cl)[C@@H](O)[C@H]1O [2(G)(97), (2R, 3R, 4S, 5S)-2-(6-amino-9H-purin-9-yl)-5-{[(2,5-dichlorophenyl)-thio]methyl}tetrahydro-furan-3,4-diol]
18%	20%	Nc1ncnc2c1ncn2[C@@H]1O[C@H](CSc2cccc(Cl)c2)[C@@H](O)[C@H]1O [2(G)(98), (2R, 3R, 4S, 5S)-2-(6-amino-9H-purin-9-yl)-5-{[(3-chlorophenyl)thio]-methyl}tetrahydrofuran-3,4-diol]
